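Protocol summary: plate cells (96-well), add compound at 5 concentrations, incubate 48 h, interpolate endpoints linearly. At the TGI there is no net growth.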
How the values were obtained:
Test in all cases: inhibition of tumour cell growth, NCI panel, 48 h
NCI-H460 lung = tested on: NCI-H460 lung
MDA-MB-435 = tested on: MDA-MB-435
M14 melanoma = tested on: M14 melanoma
SK-MEL-2 melanoma = tested on: SK-MEL-2 melanoma
HL-60(TB) leukemia = tested on: HL-60(TB) leukemia
HCT-116 colon = tested on: HCT-116 colon
EKVX NSCLC = tested on: EKVX NSCLC
KM12 colon = tested on: KM12 colon
RXF 393 renal = tested on: RXF 393 renal
SW-620 colon = tested on: SW-620 colon
SN12C renal = tested on: SN12C renal
COLO 205 colon = tested on: COLO 205 colon
UO-31 renal = tested on: UO-31 renal
MCF7 breast = tested on: MCF7 breast
SNB-75 CNS = tested on: SNB-75 CNS
OVCAR-4 ovarian = tested on: OVCAR-4 ovarian
IGROV1 ovarian = tested on: IGROV1 ovarian
SK-MEL-5 melanoma = tested on: SK-MEL-5 melanoma
OVCAR-5 ovarian = tested on: OVCAR-5 ovarian
SF-295 CNS = tested on: SF-295 CNS
CCRF-CEM leukemia = tested on: CCRF-CEM leukemia
HCT-15 colon = tested on: HCT-15 colon
LOX IMVI melanoma = tested on: LOX IMVI melanoma
TK-10 renal = tested on: TK-10 renal
CAKI-1 renal = tested on: CAKI-1 renal
OVCAR-3 ovarian = tested on: OVCAR-3 ovarian
MOLT-4 leukemia = tested on: MOLT-4 leukemia
HOP-92 NSCLC = tested on: HOP-92 NSCLC
NCI-H522 lung = tested on: NCI-H522 lung
PC-3 prostate = tested on: PC-3 prostate
HT29 colon = tested on: HT29 colon
UACC-62 melanoma = tested on: UACC-62 melanoma
NCI/ADR-RES ovarian = tested on: NCI/ADR-RES ovarian
DU-145 prostate = tested on: DU-145 prostate
MDA-N = tested on: MDA-N
HCC-2998 colon = tested on: HCC-2998 colon
ACHN renal = tested on: ACHN renal
BT-549 breast = tested on: BT-549 breast
SF-539 CNS = tested on: SF-539 CNS
SK-OV-3 ovarian = tested on: SK-OV-3 ovarian
A498 renal = tested on: A498 renal
NCI-H23 lung = tested on: NCI-H23 lung
HS 578T breast = tested on: HS 578T breast
MDA-MB-231 breast = tested on: MDA-MB-231 breast
786-0 renal = tested on: 786-0 renal
MALME-3M melanoma = tested on: MALME-3M melanoma
UACC-257 melanoma = tested on: UACC-257 melanoma
T-47D breast = tested on: T-47D breast
SNB-19 CNS = tested on: SNB-19 CNS
U251 CNS = tested on: U251 CNS
A549 NSCLC = tested on: A549 NSCLC
RPMI-8226 leukemia = tested on: RPMI-8226 leukemia
K-562 leukemia = tested on: K-562 leukemia
SK-MEL-28 melanoma = tested on: SK-MEL-28 melanoma
OVCAR-8 ovarian = tested on: OVCAR-8 ovarian
NCI-H226 lung = tested on: NCI-H226 lung
HOP-62 NSCLC = tested on: HOP-62 NSCLC
SF-268 CNS = tested on: SF-268 CNS

Nc1nc(Cl)c(N=Nc2ccc(Cl)cc2)c(NCC2(CO)CCC(CCc3ccccc3)C2)n1 (stereo not drawn)
TGI (NCI-H460 lung): 30.6 µM
TGI (MDA-MB-435): 23.7 µM
TGI (M14 melanoma): 31.5 µM
TGI (SK-MEL-2 melanoma): 33.5 µM
TGI (HL-60(TB) leukemia): 20.9 µM
TGI (HCT-116 colon): 20.2 µM
TGI (EKVX NSCLC): 28.3 µM
TGI (KM12 colon): 26.9 µM
TGI (RXF 393 renal): 22.2 µM
TGI (SW-620 colon): 17 µM
TGI (SN12C renal): 30.2 µM
TGI (COLO 205 colon): 19.4 µM
TGI (UO-31 renal): 4.31 µM
TGI (MCF7 breast): 19.5 µM
TGI (SNB-75 CNS): 28 µM
TGI (OVCAR-4 ovarian): 10.6 µM
TGI (IGROV1 ovarian): 23.4 µM
TGI (SK-MEL-5 melanoma): 13.6 µM
TGI (OVCAR-5 ovarian): 31.3 µM
TGI (SF-295 CNS): 25.7 µM
TGI (CCRF-CEM leukemia): 8.84 µM
TGI (HCT-15 colon): 24.7 µM
TGI (LOX IMVI melanoma): 4.59 µM
TGI (TK-10 renal): 27.5 µM
TGI (CAKI-1 renal): 13.5 µM
TGI (OVCAR-3 ovarian): 23.6 µM
TGI (MOLT-4 leukemia): 8.49 µM
TGI (HOP-92 NSCLC): 29.3 µM
TGI (NCI-H522 lung): 5.42 µM
TGI (PC-3 prostate): 25.8 µM
TGI (HT29 colon): 30.4 µM
TGI (UACC-62 melanoma): 22.1 µM
TGI (NCI/ADR-RES ovarian): 34.4 µM
TGI (DU-145 prostate): 25.9 µM
TGI (MDA-N): 30.2 µM
TGI (HCC-2998 colon): 17.3 µM
TGI (ACHN renal): 19.9 µM
TGI (BT-549 breast): 23.4 µM
TGI (SF-539 CNS): 34.5 µM
TGI (SK-OV-3 ovarian): 26.1 µM
TGI (A498 renal): 27.3 µM
TGI (NCI-H23 lung): 15.6 µM
TGI (HS 578T breast): > 55.3 µM
TGI (MDA-MB-231 breast): 31.2 µM
TGI (786-0 renal): 21.6 µM
TGI (MALME-3M melanoma): 51 µM
TGI (UACC-257 melanoma): 25.1 µM
TGI (T-47D breast): 32.2 µM
TGI (SNB-19 CNS): 48.7 µM
TGI (U251 CNS): 31.2 µM
TGI (A549 NSCLC): 51.7 µM
TGI (RPMI-8226 leukemia): 32.9 µM
TGI (K-562 leukemia): 9.78 µM
TGI (SK-MEL-28 melanoma): 35.3 µM
TGI (OVCAR-8 ovarian): 19.3 µM
TGI (NCI-H226 lung): 19.4 µM
TGI (HOP-62 NSCLC): 28.1 µM
TGI (SF-268 CNS): 33.4 µM

— PubChem BioAssay (NCI)
